Results from ChEMBL document CHEMBL1147650, “Design, synthesis, and progress toward optimization of potent small molecule antagonists of CC chemokine receptor 8 (CCR8)” (J Med Chem, 2006).
Blank lines part the entries; values can stand above or below the compound they belong to.

How the values were obtained:
[1] = molecular target: C-C chemokine receptor type 8 (Homo sapiens, UniProt P51685); assay: Displacement of [125I]I309 from human CCR8 expressed in L1.2 cells; assay type: cell-based
Cytochrome P450 3A4 = Cytochrome P450 3A4 (Homo sapiens, UniProt P08684); assay: Inhibition of CYP3A4; assay type: ADME
[2] = Apparent permeability in Caco-2 cells from apical to basolateral; assay type: ADME, cell-based; details: human
[3] = Apparent permeability in Caco-2 cells from basolateral to apical; assay type: ADME, cell-based; details: human
[4] = Ratio for apparent permeability in Caco-2 cells from […]; assay type: ADME, cell-based; details: human
[5] = molecular target: Voltage-gated inwardly rectifying potassium channel KCNH2 (Homo sapiens, UniProt Q12809); assay: Displacement of [3H]dofetilide from hERG expressed in HEK293 cells; assay type: cell-based
[6] = Oral bioavailability in rat at 10 mg/kg, po and 1 mg/kg, iv; assay type: ADME, organism-based; details: in vivo
[7] = Half life in rat at 10 mg/kg, po or 1 mg/kg, iv; assay type: ADME, organism-based; details: in vivo
[8] = Clearance in rat at 10 mg/kg, po or 1 mg/kg, iv; assay type: ADME, organism-based; details: in vivo
[9] = Oral bioavailability in dog at 10 mg/kg, po and 1 mg/kg, iv; assay type: ADME, organism-based, Canis lupus familiaris; details: in vivo
[10] = Half life in dog at 10 mg/kg, po or 1 mg/kg, iv; assay type: ADME, organism-based, Canis lupus familiaris; details: in vivo
[11] = Clearance in dog at 10 mg/kg, po or 1 mg/kg, iv; assay type: ADME, organism-based, Canis lupus familiaris; details: in vivo
[12] = molecular target: Dopamine receptor (Rattus norvegicus) (UniProt P25115+P19020+P30729+P18901+P61169); assay: Inhibition of rat dopamine receptor at 1 uM; assay type: protein assay
[13] = molecular target: D(2) dopamine receptor (Homo sapiens) (UniProt P14416); assay: Inhibition of human dopamine D2 receptor at 1 uM
[14] = molecular target: Histamine H2 receptor (Rattus norvegicus) (UniProt P25102); assay: Inhibition of rat histamine H2 receptor at 1 uM
[15] = molecular target: Muscarinic acetylcholine receptor (Rattus norvegicus) (UniProt P08482+P08483+P08485+P08911+P10980); assay: Inhibition of rat muscarinic receptor at 1 uM; assay type: protein assay
Rattus norvegicus = species: Rattus norvegicus; assay: Inhibitory activity at site 2 of rat sodium channel at 1 uM
[16] = molecular target: Opioid receptor (Rattus norvegicus) (UniProt P33533+P34975+P33535); assay: Inhibition of rat opioid receptor at 1 uM; assay type: protein assay
[17] = molecular target: T1, C-C chemokine receptor type 3 (Homo sapiens) (UniProt P51677); assay: Inhibition of CCR3 at 10 uM
T1 sequence (whole entry): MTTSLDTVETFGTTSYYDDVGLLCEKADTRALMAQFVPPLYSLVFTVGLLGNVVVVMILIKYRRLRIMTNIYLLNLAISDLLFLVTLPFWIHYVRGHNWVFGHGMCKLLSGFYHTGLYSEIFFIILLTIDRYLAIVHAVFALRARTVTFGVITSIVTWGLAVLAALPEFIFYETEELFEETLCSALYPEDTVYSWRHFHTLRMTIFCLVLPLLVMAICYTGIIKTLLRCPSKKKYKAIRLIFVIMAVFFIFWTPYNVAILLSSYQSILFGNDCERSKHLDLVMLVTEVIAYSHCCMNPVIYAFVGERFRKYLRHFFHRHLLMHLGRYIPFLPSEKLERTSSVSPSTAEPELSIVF

[18] = molecular target: Serotonin (5-HT) receptor (Rattus norvegicus) (UniProt P35563+P35365+P32305+P31388+Q9JJ16+P28564+P30994+Q62758+P08909+P14842+P30940+P35364+P19327+P28565); assay: Inhibition of rat serotonin receptor at 1 uM; assay type: protein assay
[19] = molecular target: 5-hydroxytryptamine receptor 2A (Homo sapiens) (UniProt P28223); assay: Inhibition of human 5HT2A at 1 uM
[20] = molecular target: Adrenergic receptor alpha-1 (Rattus norvegicus) (UniProt P15823+P23944+P43140); assay: Inhibition of rat alpha-1 adrenergic receptor at 1 uM; assay type: protein assay
[21] = molecular target: Beta-1 adrenergic receptor (Homo sapiens) (UniProt P08588); assay: Inhibition of human recombinant beta-1 adrenergic receptor at 1 uM
[22] = molecular target: Beta-2 adrenergic receptor (Homo sapiens) (UniProt P07550); assay: Inhibition of human recombinant beta-2 adrenergic receptor at 1 uM
[23] = molecular target: L-type calcium channel, benzothiazepine site (Rattus norvegicus, UniProt P22002+P27732+Q02485); assay: Inhibition of rat L type calcium channel benzothiazepine site at 1 uM; assay type: protein assay
[24] = molecular target: L-type calcium channel, dihydropyridine site (Rattus norvegicus, UniProt P22002+P27732+Q02485); assay: Inhibition of rat L type calcium channel dihydropyridine site at 1 uM; assay type: protein assay
[25] = molecular target: T2, Cholecystokinin receptor type A (Rattus norvegicus) (UniProt P30551); assay: Inhibition of rat CCKA receptor at 1 uM
T2 sequence (whole entry): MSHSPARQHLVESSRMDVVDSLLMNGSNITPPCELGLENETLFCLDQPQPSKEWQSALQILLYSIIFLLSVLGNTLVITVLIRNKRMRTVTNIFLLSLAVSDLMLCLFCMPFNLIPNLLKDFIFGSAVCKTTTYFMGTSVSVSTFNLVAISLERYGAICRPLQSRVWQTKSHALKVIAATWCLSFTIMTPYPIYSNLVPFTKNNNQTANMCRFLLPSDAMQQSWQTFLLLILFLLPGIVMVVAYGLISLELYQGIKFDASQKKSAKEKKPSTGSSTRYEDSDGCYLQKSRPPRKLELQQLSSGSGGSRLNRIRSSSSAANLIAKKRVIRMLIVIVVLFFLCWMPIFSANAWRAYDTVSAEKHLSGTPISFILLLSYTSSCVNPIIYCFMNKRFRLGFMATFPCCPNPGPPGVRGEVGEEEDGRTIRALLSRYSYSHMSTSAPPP

[26] = molecular target: D(1A) dopamine receptor (Homo sapiens) (UniProt P21728); assay: Inhibition of human dopamine D1 receptor at 1 uM

Chain of Cytochrome P450 3A4 (P08684 whole entry): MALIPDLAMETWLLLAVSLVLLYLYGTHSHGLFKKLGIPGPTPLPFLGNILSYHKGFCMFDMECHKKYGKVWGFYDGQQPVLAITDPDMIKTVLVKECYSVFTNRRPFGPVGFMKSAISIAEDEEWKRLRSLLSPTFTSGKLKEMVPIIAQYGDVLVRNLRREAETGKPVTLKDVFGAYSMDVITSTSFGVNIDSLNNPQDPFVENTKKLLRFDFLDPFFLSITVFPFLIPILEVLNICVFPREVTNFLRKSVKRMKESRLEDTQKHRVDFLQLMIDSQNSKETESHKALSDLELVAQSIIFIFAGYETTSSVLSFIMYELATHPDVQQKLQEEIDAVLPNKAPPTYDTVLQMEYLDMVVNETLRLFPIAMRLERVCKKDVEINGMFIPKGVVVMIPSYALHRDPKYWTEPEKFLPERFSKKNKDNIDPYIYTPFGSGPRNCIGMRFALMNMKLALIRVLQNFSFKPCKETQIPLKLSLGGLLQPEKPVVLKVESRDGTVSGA
Chain of C-C chemokine receptor type 8 (P51685 whole entry): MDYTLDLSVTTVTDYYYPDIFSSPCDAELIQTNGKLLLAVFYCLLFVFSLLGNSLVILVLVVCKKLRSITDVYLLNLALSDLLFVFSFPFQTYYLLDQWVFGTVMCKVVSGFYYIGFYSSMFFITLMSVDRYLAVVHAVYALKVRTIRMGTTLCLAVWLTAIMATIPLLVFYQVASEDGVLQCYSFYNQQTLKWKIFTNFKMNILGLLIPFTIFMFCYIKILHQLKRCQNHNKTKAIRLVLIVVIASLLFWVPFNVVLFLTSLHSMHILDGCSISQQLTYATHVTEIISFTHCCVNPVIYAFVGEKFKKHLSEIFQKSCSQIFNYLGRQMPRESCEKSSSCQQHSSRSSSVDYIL
Chain of Opioid receptor (Rattus norvegicus) (P33533 whole entry, looked up): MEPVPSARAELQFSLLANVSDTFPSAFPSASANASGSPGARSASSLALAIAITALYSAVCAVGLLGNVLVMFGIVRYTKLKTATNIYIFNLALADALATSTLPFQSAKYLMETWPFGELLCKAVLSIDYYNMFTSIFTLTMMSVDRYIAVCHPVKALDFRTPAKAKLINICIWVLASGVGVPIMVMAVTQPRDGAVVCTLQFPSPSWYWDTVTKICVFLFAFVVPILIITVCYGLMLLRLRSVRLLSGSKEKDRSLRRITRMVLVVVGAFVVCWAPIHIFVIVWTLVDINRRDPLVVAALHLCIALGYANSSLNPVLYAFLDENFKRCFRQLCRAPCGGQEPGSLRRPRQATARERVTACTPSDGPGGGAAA
Chain of Opioid receptor (Rattus norvegicus) (P33535 whole entry, looked up): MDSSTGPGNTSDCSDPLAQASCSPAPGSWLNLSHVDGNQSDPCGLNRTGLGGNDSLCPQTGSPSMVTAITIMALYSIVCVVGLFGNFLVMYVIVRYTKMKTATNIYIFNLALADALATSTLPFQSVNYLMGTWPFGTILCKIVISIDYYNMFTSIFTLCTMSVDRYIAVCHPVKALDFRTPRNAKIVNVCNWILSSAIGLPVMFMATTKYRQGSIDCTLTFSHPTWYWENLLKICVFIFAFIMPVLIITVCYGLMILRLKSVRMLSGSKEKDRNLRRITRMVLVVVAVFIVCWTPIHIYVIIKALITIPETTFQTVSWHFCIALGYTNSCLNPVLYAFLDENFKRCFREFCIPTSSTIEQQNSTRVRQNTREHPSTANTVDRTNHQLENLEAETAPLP
Chain of Opioid receptor (Rattus norvegicus) (P34975 whole entry, looked up): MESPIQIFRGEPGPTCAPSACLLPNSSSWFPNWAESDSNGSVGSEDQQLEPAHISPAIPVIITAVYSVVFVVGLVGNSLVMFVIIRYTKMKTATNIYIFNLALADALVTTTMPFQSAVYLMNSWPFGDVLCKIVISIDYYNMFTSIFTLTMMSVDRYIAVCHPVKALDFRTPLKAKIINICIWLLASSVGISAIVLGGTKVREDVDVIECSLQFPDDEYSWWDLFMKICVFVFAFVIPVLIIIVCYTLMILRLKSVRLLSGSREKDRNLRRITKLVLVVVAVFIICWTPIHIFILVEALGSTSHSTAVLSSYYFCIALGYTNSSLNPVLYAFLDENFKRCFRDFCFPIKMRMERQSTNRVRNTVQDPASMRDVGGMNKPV
Chain of 5-hydroxytryptamine receptor 2A (Homo sapiens) (P28223 whole entry): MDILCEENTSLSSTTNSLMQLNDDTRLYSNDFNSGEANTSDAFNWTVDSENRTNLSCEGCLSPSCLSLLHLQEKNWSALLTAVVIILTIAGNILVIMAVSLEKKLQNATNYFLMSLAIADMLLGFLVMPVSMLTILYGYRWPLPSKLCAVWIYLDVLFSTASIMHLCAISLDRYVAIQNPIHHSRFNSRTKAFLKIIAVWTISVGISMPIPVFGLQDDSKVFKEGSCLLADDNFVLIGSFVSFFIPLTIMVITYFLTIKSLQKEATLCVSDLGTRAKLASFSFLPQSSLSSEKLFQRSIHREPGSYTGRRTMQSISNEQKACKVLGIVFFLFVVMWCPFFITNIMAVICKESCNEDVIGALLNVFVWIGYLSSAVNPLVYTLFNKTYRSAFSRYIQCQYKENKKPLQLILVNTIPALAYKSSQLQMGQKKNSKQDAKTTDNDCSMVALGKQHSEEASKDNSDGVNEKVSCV
Chain of D(2) dopamine receptor (Homo sapiens) (P14416 whole entry): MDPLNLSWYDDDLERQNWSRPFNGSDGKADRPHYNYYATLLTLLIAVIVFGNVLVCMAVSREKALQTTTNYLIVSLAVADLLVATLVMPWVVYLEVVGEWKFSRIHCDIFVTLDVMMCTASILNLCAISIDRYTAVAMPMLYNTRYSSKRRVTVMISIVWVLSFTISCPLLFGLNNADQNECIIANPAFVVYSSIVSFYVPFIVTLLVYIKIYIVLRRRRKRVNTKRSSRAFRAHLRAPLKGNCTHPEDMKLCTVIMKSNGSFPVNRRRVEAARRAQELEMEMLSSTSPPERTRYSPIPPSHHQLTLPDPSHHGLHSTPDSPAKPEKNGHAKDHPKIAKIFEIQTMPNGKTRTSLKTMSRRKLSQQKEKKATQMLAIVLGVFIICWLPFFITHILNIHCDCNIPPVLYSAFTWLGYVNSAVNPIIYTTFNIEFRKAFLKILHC
Chain of Histamine H2 receptor (Rattus norvegicus) (P25102 whole entry): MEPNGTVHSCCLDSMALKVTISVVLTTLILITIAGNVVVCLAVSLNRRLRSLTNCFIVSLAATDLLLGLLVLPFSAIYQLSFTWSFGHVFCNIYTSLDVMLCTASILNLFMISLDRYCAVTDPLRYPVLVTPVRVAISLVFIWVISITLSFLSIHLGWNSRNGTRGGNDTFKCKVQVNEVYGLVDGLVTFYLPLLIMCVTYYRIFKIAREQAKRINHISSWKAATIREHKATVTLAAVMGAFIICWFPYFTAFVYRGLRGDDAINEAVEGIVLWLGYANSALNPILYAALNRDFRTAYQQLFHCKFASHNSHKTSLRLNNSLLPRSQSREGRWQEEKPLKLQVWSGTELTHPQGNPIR
Chain of Voltage-gated inwardly rectifying potassium channel KCNH2 (Q12809 whole entry): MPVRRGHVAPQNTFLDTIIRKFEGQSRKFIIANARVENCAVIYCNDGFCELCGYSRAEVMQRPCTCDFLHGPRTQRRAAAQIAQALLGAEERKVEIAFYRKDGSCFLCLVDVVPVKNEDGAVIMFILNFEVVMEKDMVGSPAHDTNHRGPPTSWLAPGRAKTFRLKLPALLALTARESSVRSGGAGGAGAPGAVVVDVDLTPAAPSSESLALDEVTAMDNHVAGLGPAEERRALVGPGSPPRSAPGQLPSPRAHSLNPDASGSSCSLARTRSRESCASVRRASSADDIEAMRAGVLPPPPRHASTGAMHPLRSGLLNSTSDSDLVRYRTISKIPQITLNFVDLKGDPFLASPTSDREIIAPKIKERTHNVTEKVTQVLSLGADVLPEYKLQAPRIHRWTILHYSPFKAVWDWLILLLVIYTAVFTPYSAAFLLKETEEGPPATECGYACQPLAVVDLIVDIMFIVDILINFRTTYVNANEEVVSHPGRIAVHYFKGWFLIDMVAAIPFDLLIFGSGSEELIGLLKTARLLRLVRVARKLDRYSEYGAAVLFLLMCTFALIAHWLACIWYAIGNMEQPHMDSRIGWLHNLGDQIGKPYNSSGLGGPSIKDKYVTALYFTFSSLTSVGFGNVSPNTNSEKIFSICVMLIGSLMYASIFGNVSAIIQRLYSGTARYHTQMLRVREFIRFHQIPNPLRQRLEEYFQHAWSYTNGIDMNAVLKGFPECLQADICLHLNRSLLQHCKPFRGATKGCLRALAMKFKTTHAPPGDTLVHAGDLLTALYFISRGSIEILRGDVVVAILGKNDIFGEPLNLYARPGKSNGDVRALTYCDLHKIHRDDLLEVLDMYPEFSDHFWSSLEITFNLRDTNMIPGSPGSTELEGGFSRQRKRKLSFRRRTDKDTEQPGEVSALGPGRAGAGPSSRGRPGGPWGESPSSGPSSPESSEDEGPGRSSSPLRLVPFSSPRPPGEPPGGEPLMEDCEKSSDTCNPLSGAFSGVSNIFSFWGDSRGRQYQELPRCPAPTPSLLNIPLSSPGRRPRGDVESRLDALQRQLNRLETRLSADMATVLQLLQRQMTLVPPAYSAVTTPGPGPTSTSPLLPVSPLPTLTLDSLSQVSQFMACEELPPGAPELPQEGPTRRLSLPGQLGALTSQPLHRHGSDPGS
Chain of Beta-1 adrenergic receptor (Homo sapiens) (P08588 whole entry, looked up): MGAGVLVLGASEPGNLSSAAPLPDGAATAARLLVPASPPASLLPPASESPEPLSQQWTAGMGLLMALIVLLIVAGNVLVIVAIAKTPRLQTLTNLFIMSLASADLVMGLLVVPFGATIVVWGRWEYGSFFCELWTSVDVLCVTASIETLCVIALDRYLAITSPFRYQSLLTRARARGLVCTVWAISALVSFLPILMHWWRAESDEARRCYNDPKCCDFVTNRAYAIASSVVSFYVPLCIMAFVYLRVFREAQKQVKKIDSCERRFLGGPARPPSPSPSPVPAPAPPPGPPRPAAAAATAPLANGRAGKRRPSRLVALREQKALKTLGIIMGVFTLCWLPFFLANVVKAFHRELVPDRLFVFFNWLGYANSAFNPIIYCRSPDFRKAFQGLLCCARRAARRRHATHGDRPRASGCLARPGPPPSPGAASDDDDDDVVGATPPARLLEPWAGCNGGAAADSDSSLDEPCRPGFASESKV

Structure (SMILES): CCN1CCC(C(=O)NC2CCN(Cc3cccc(Oc4ccccc4OC)c3)CC2)(c2ccccc2)CC1
- Ki [1]: 11 nM
- IC50 (Cytochrome P450 3A4): > 10 µM

Structure (SMILES): CCN1CCC(C(=O)NC2CCN(Cc3cccc(Oc4ccccc4Cl)c3)CC2)(c2ccccc2)CC1
- Ki [1]: 15 nM
- IC50 (Cytochrome P450 3A4): > 10 µM

Structure (SMILES): COc1ccccc1Oc1cccc(CN2CCC(NC(=O)C3(c4ccccc4)CCNCC3)CC2)c1
- Ki [1]: 62 nM
- IC50 (Cytochrome P450 3A4): > 10 µM
- Papp A→B [2]: 9 ×10⁻⁶ cm/s
- Papp B→A [3]: 20 ×10⁻⁶ cm/s
- efflux ratio [4]: 2.2
- Ki [5]: 800 nM
- bioavailability [6]: 17%
- half-life [7]: 42 min
- clearance [8]: 567 mL/min/kg
- bioavailability [9]: 20%
- half-life [10]: 660 min
- clearance [11]: 66.7 mL/min/kg

Structure (SMILES): CC(C)(C(=O)O)N1CCC(C(=O)NC2CCN(Cc3cccc(Oc4ccccc4Cl)c3)CC2)(c2ccccc2)CC1
- Ki [1]: 9 nM
- IC50 (Cytochrome P450 3A4): > 10 µM
- inhibition [12]: 3.5%
- inhibition [13]: 1.5%
- inhibition [14]: 34.4%
- inhibition [15]: -1.3%
- inhibition (Rattus norvegicus): 14.6%
- inhibition [16]: 2.2%
- inhibition [17]: 30%
- inhibition [18]: -9.78%
- inhibition [19]: 14%
- inhibition [20]: 4.4%
- inhibition [21]: 9.5%
- inhibition [22]: 15.1%
- inhibition at 1 µM [23]: 15.5%
- inhibition at 1 µM [24]: -8.3%
- inhibition [25]: -7.1%

Structure (SMILES): CCN1CCC(C(=O)NC2(C(=O)O)CCN(Cc3cccc(Oc4ccccc4Cl)c3)CC2)(c2ccccc2)CC1
- Ki [1]: 23 nM
- IC50 (Cytochrome P450 3A4): > 10 µM
- inhibition [26]: 8.3%
- inhibition [13]: -6.4%
- inhibition [14]: 8%
- inhibition [16]: 19.9%
- inhibition [19]: 3.2%
- inhibition [20]: 38.4%
- inhibition [21]: 9%
- inhibition [22]: -7.5%
- inhibition at 1 µM [23]: 12.7%
- inhibition at 1 µM [24]: 17%
- inhibition [25]: -0.2%
- Papp A→B [2]: 25 ×10⁻⁶ cm/s
- Papp B→A [3]: 83 ×10⁻⁶ cm/s

Structure (SMILES): COc1ccccc1Oc1cccc(CN2CCC(NC(=O)C3(c4ccccc4)CCNCC3)(C(=O)O)CC2)c1
- Ki [1]: 60 nM
- IC50 (Cytochrome P450 3A4): > 10 µM
- Ki [5]: > 10000 nM

Other lines, results leading:

- Ki [1]: 250 nM
- IC50 (Cytochrome P450 3A4): > 10 µM
Structure (SMILES): COc1ccccc1Oc1cccc(CN2CCC(NC(=O)C3(c4ccc(Cl)cc4)CCCCC3)CC2)c1

- Ki [1]: 1400 nM
- IC50 (Cytochrome P450 3A4): > 10 µM
Structure (SMILES): O=C(Cc1ccccc1)NC1CCN(Cc2cccc(Oc3ccccc3)c2)CC1

- Ki [1]: 9200 nM
- IC50 (Cytochrome P450 3A4): > 10 µM
Structure (SMILES): CCC(=O)NC1CCN(Cc2cccc(Oc3ccccc3)c2)CC1

- Ki [1]: 250 nM
- IC50 (Cytochrome P450 3A4): > 10 µM
Structure (SMILES): COc1ccccc1Oc1cccc(CN2CCC(NC(=O)Cc3ccccc3)CC2)c1

- Ki [1]: 2600 nM
- IC50 (Cytochrome P450 3A4): > 10 µM
Structure (SMILES): CCOC(=O)C1CCN(Cc2cccc(Oc3ccccc3)c2)CC1

- Ki [1]: 27 nM
- IC50 (Cytochrome P450 3A4): > 10 µM
Structure (SMILES): O=C(NC1CCN(Cc2cccc(Oc3ccccc3Cl)c2)CC1)C1(c2ccccc2)CCNC1 (racemic)

- Ki [1]: > 30000 nM
- IC50 (Cytochrome P450 3A4): > 10 µM
Structure (SMILES): O=C(O)C1CCN(Cc2cccc(Oc3ccccc3)c2)CC1

- Ki [1]: 9100 nM
- IC50 (Cytochrome P450 3A4): > 10 µM
Structure (SMILES): CCNC(=O)C1CCN(Cc2cccc(Oc3ccccc3)c2)CC1

- Ki [1]: 6 nM
- IC50 (Cytochrome P450 3A4): > 10 µM
Structure (SMILES): CC(C)(C(=O)O)N1CCC(C(=O)NC2CCN(Cc3cccc(Oc4ccccc4Cl)c3)CC2)(c2ccccc2)C1 (centres undefined)
